Results reported in patent US11939354B1, “Fusion peptide inhibitors of human coronavirus 229E” (KING FAISAL UNIVERSITY, priority 2023, dated 2024).
Ends that are not written are not given here.

What was measured:
[1] = Cytotoxicity (CC50) of tested peptides; settings: African green monkey, Vero E6 cells
HCoV-229E = settings: 24 h
[2] = target: HCoV-229E spike (S) protein (human coronavirus 229E, UniProt P15423); experiment: cell-based or functional assay

CC[C@H](C)[C@H](NC(=O)CNC(=O)[C@H](CO)NC(=O)[C@@H](NC(=O)[C@H](CC(=O)O)NC(=O)CNC(=O)[C@H](CC(C)C)NC(=O)[C@@H](NC(=O)[C@@H](N)Cc1c[nH]cn1)C(C)C)[C@@H](C)CC)C(=O)N[C@@H](CC(N)=O)C(=O)N[C@@H](C)C(=O)N[C@@H](CO)C(=O)N[C@H](C(=O)N[C@H](C(=O)N[C@@H](CCC(N)=O)C(=O)N[C@H](C(=O)N[C@@H](CCC(N)=O)C(=O)N[C@@H](CCCCN)C(=O)N[C@@H](CCC(=O)O)C(=O)N[C@H](C(=O)N[C@@H](CC(=O)O)C(=O)N[C@@H](CCCNC(=N)N)C(=O)N[C@@H](CC(C)C)C(=O)N[C@@H](CC(N)=O)C(=O)N[C@@H](CCC(=O)O)C(=O)N[C@H](C(=O)N[C@@H](C)C(=O)N[C@@H](CCCCN)C(=O)N[C@@H](CC(N)=O)C(=O)N[C@@H](CC(C)C)C(=O)N[C@@H](Cc1c[nH]cn1)C(=O)N[C@@H](CCC(=O)O)C(=O)N[C@@H](CO)C(=O)N[C@@H](CC(C)C)C(=O)N[C@H](C(=O)N[C@@H](Cc1ccc(O)cc1)C(=O)N[C@@H](CC(C)C)C(=O)N[C@@H](CCC(N)=O)C(=O)N[C@@H](CCC(=O)O)C(=O)O)[C@@H](C)CC)C(C)C)[C@@H](C)CC)[C@@H](C)CC)C(C)C)C(C)C [Peptide 121]
CC50 [1]: 251 µM
IC50 (HCoV-229E): 14.2 µM
Selectivity Index (HCoV-229E): 13.06

HRLRQIRGIRARVVQIQKEIWRLNEVAKLLNESLIYLQE [Peptide 125]
CC50 [1]: 255 µM
IC50 (HCoV-229E): 14.5 µM
Selectivity Index (HCoV-229E): 17.56

HVLGDISGINASVVQIQKEIDRLNEVAKNLHESLIYLQE [Peptide 121]
IC50, plaque reduction test against HCoV-229E [2]: 14.2 µM

HRLRQIRGIRARVVQIQKEIWRLNEVAKLLNESLIYLQE [Peptide 125]
IC50, plaque reduction test against HCoV-229E [2]: 14.5 µM
